How the values were obtained:
[1] = tested on: CT-DNA; experiment: EB-DNA competitive binding (fluorescence quenching); design: species or system calf; conditions: compounds 10–100 μM; for quenching of the emission band of DNA-bound EB: % of the initial fluorescence intensity; for Quenching constant KSV: Stern–Volmer, DNA-EB 10 μM
Protocol: The competitive binding experiments were carried out on the EB–CT-DNA system by varying the concentrations of the ligands and complexes to get further information about the binding mode of compounds with DNA. In our studies, it was noted that upon concomitant addition of the compounds to the EB-DNA system, emission intensity decreased progressively, indicative of competition between EB and compounds towards CT-DNA in binding/chelation (Fig. S26 ^†). The reduction of the fluorescence emission intensity gives criteria to investigate the DNA binding propensity of the compounds and stacking interaction (intercalation) between the adjacent DNA base pairs.[45] […] This provides a direct evidence for the intercalative binding mode of the compounds with DNA.
Further quantitative measurement of the magnitude of interaction was ascertained by the classical Stern–Volmer equation. Quenching constant KSV is used to evaluate the quenching efficiency and is obtained from the slope of Io/I versus [Q] […] Further, the calculated KSV values of the compounds are significant when compared to the reported values.[30,31]
Supplementary Information
All the experiments involving CT-DNA binding were carried out in deionised water with tris(hydroxymethyl)-aminomethane (Tris, 5 mM) and sodium chloride (50 mM) and adjusted to pH 7.2 with hydrochloric acid at room temperature. The concentration of CT-DNA was determined by UV absorbance at 260 nm. Solutions of CT-DNA in Tris-HCl buffer gave a ratio of UV absorbance at 260 and 280 nm, A260/A280, of approximately 1.9, […]
The molar absorption coefficient, […]
[DNA]/[εa-εf]) = [DNA]/[ε b-εf]+1/Kb[εb-εf] (S1) […]
EB-DNA. The change in the fluorescence intensity was recorded. Before measurements, the system was shaken well and incubated at room temperature for 5 min. […]

[2] = biological target: T1, BSA (Bos taurus, UniProt P02769); experiment: Three-dimensional fluorescence spectra of BSA; format: binding, bovine; conditions: BSA 10 μM + compound 10 μM, pH 7.4, 298 K
T1 construct: purchased HiMedia (Mumbai, India)
From the text: To investigate the micro environmental changes in BSA/HSA during interaction with the compounds, three dimensional fluorescence spectroscopic studies have been performed. The changes observed in 3D emission spectra and contour lines of serum albumins in the absence and presence of ligands and complexes are given in Fig. 15, 16, S34 and S35 in the ESI ^† and their corresponding characteristic parameters are provided in Table 5. The emission spectra of serum albumins such as BSA and HSA have shown three characteristic peaks – peaks A and C corresponds to first and second order Rayleigh scattering and peak B corresponds to the spectral characteristics of Trp and Tyr residues of proteins.[57] The emission intensity of Rayleigh first order scattering peak increased upon adding the compounds to serum albumins. […] The fluorescence intensity of peak ‘B’ corresponding to the tryptophan and tyrosine residues decreased with slight blue shift. From the results, it is inferred that the molecular microenvironment and conformational changes of protein occurred after interaction with the complexes and ligands.
Fig. 15 Three-dimensional fluorescence spectra of BSA in the absence and presence of ruthenium(II) complexes 1–4 (pH 7.4, 298 K, [BSA] = 10 μM, [complex] = 10 μM).
Fig. S34. Three-dimensional fluorescence spectra of BSA in the absence and presence of
ligands H 2L1-4 (pH 7.4, 298 K, [HSA] =10 µM, [Ligand] =10 µM) […]

[3] = tested on: MCF-7 cells; experiment: Lactate dehydrogenase release; format: cell-based, human; conditions: MCF-7, IC50 concentrations, 48 h
Protocol: (§1) LDH is a stable cytoplasmic enzyme that is released into the culture medium following loss of membrane integrity and serves as a general mean to assess cytotoxicity resulting from chemical compounds or environmental toxic factors.[68] In the present study, LDH leakage into the culture medium of the compounds treated A549 and MCF-7 cells was analyzed. […] The results confirmed the cytotoxic effect of the ligands and complexes on lung and breast cancer cell lines. The compounds could induce LDH leakage as high as that of cisplatin. […] Error bars represent the standard mean error (n = 6).

[4] = tested on: A549 cells; experiment: Lactate dehydrogenase release; format: cell-based, human; conditions: A549, IC50 concentrations, 48 h
Protocol: as §1

T1 sequence (P02769 25-607): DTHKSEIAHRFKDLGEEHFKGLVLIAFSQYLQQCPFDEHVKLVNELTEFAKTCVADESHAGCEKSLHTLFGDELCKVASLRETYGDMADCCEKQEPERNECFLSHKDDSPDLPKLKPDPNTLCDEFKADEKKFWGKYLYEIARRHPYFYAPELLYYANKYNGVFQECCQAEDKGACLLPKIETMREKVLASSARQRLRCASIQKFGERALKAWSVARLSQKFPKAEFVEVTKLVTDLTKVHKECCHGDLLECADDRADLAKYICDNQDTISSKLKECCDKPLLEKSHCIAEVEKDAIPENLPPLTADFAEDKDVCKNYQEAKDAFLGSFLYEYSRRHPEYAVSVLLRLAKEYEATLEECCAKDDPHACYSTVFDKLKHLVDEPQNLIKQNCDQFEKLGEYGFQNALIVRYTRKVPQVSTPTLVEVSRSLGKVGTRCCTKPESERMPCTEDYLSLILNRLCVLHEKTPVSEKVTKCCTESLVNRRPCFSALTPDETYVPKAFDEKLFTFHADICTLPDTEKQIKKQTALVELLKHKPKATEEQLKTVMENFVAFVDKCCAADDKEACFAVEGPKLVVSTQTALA

COc1ccc2[c]3c(c(=O)oc2c1)C(C)=[N+]1N=C(N)[S][Ru-4]31([C]#[O+])([P+](c1ccccc1)(c1ccccc1)c1ccccc1)[P+](c1ccccc1)(c1ccccc1)c1ccccc1 [Complex 1, [Ru(7MAC-tsc)(CO)(PPh3)2]]
quenching of the emission band of DNA-bound EB [1]: 27.83% | Quenching constant KSV [1]: 4.16 ± 0.002 × 10^3 M^−1 | Fluorescence peaks Intensity (F) [2]: 395.56 | Fluorescence peaks Peak position λex/λem [2]: 280/338 | Fluorescence peaks Stokes Δλ [2]: 58 nm | Rayleigh scattering peaks Intensity (F) [2]: 867.32

CCNC1=N[N+]2=C(C)c3[c](c4ccc(OC)cc4oc3=O)[Ru-4]2([C]#[O+])([P+](c2ccccc2)(c2ccccc2)c2ccccc2)([P+](c2ccccc2)(c2ccccc2)c2ccccc2)[S]1 [Complex 3, [Ru(7MAC-etsc)(CO)(PPh3)2]]
quenching of the emission band of DNA-bound EB [1]: 36.99% | Quenching constant KSV [1]: 5.62 ± 0.003 × 10^3 M^−1 | Fluorescence peaks Intensity (F) [2]: 304.43 | Fluorescence peaks Peak position λex/λem [2]: 280/339 | Fluorescence peaks Stokes Δλ [2]: 59 nm | Rayleigh scattering peaks Intensity (F) [2]: 958.23 | LDH release into the culture medium [3]: more potent in inducing LDH leakage into the culture than the rest | LDH release into the culture medium [4]: more potent in inducing LDH leakage into the culture than the rest

COc1ccc2cc(/C(C)=N\NC(=S)Nc3ccccc3)c(=O)oc2c1 [H2L^4, ((1E)-1-(1-(7-methoxy-2-oxo-2H-chromen-3-yl)ethylidene) 4(N)-phenylthiosemicarbazone)]
melting point: 186 °C

CNC1=N[N+]2=C(C)c3[c](c4ccc(OC)cc4oc3=O)[Ru-4]2([C]#[O+])([P+](c2ccccc2)(c2ccccc2)c2ccccc2)([P+](c2ccccc2)(c2ccccc2)c2ccccc2)[S]1 [Complex 2, [Ru(7MAC-mtsc)(CO)(PPh3)2]]
quenching of the emission band of DNA-bound EB [1]: 36.67% | Quenching constant KSV [1]: 5.52 ± 0.009 × 10^3 M^−1 | Fluorescence peaks Intensity (F) [2]: 372.76 | Fluorescence peaks Peak position λex/λem [2]: 280/339 | Fluorescence peaks Stokes Δλ [2]: 59 nm | Rayleigh scattering peaks Intensity (F) [2]: 837.83

COc1ccc2cc(C(C)=NNC(N)=S)c(=O)oc2c1 [H2L^1, ((1E)-1-(1-(7-methoxy-2-oxo-2H-chromen-3-yl)ethylidene)thiosemicarbazone)]
melting point: 213 °C

CCNC(=S)NN=C(C)c1cc2ccc(OC)cc2oc1=O [H2L^3, ((1E)-1-(1-(7-methoxy-2-oxo-2H-chromen-3-yl)ethylidene) 4(N)-ethylthiosemicarbazone)]
melting point: 174 °C

CNC(=S)NN=C(C)c1cc2ccc(OC)cc2oc1=O [H2L^2, ((1E)-1-(1-(7-methoxy-2-oxo-2H-chromen-3-yl)ethylidene) 4(N)-methylthiosemicarbazone)]
melting point: 117 °C

COc1ccc2[c]3c(c(=O)oc2c1)C(C)=[N+]1N=C(Nc2ccccc2)[S][Ru-4]31([C]#[O+])([P+](c1ccccc1)(c1ccccc1)c1ccccc1)[P+](c1ccccc1)(c1ccccc1)c1ccccc1 [Complex 4, [Ru(7MAC-ptsc)(CO)(PPh3)2]]
quenching of the emission band of DNA-bound EB [1]: 28.92% | Quenching constant KSV [1]: 4.00 ± 0.002 × 10^3 M^−1 | Fluorescence peaks Intensity (F) [2]: 368.76 | Fluorescence peaks Peak position λex/λem [2]: 280/340 | Fluorescence peaks Stokes Δλ [2]: 60 nm | Rayleigh scattering peaks Intensity (F) [2]: 741.59

Reference: publication PMC9077138, “An investigation on 3-acetyl-7-methoxy-coumarin Schiff bases and their Ru(II) metallates with potent antiproliferative activity and enhanced LDH and NO release” (RSC Advances, 2018)
